The subject of this experiment is SK-N-SH human neuroblastoma cells. Kind of experiment: Serum Deprivation/JC-1 Mitochondrial Membrane Potential (MMP) Assay. It counts as cell-based. Conditions: for EC50: serum deprivation ~18 hours, JC-1 ratio normalized to peak value for 10 μM dimebolin, single curve fit to mean data of n=2-3; for Emax: read-out: JC-1 max %; for activation at 3 µM: single dose 3 μM, JC-1 ratio normalized to peak value for 10 μM dimebolin (n=2-4), read-out: JC-1 max % (@ 3 μM). A digest of the protocol:
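SK-N-SH cells serum-deprived ~18 h with compound, then stained with JC-1 for 40 min at 37 °C; red (560/595 nm) to green (485/535 nm) ratio reports membrane potential. Response normalized to peak from 10 μM dimebolin; EC50 from fit to mean of n=2–3, or single-dose 3 μM; DMSO ≤1%.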

Setting [1] is: Homo sapiens, SK-N-SH, percent maximal intensity in JC-1 ratio normalized to peak value for 10 μM dimebolin, serum deprivation.
Setting [2] is: Homo sapiens, serum deprivation.

On to `Cc1ccc(CN2Cc3ccccc3N3CCN(Cc4ccccc4)CC3C2)s1` (stereo not drawn) [Example 122, 3-benzyl-6-[(5-methyl-2-thienyl)methyl]-1,2,3,4,4a,5,6,7-octahydropyrazino[1,2-a][1,4]benzodiazepine], for which the concentration giving a half-maximal response (EC50) (Homo sapiens, SK-N-SH, 18 h) was determined as 3.4 µM. In addition, the Emax under setting [1] came out at 133%. In the case of `Brc1ccc(CN2Cc3ccccc3N3CCN(Cc4ccccc4)CC3C2)cc1` (stereo not drawn) [Example 123, 3-benzyl-6-(4-bromobenzyl)-1,2,3,4,4a,5,6,7-octahydropyrazino[1,2-a][1,4]benzodiazepine], the EC50 turned out to be 3.44 µM. Under “percent maximal intensity in JC-1 ratio normalized to peak value for 10 μM dimebolin, serum deprivation”, the JC-1 max % is listed as 186%. For the molecule `c1ccc(CN2CCN3c4ccccc4CN(Cc4ccc5ccccc5c4)CC3C2)cc1` (stereo not drawn) [Example 124, 3-benzyl-6-(2-naphthylmethyl)-1,2,3,4,4a,5,6,7-octahydropyrazino[1,2-a][1,4]benzodiazepine], under “Homo sapiens, SK-N-SH, 18 h”, the EC50 came out at 3.49 µM. Moreover, the Emax under setting [1] was determined as 193%. On the same counts, the results for `c1ccc(CN2CCN3c4ccccc4CN(CC4CCCC4)CC3C2)cc1` (stereo not drawn) [Example 125, 3-benzyl-6-(cyclopentylmethyl)-1,2,3,4,4a,5,6,7-octahydropyrazino[1,2-a][1,4]benzodiazepine] are 4.26 µM and 98%. The matching figures for `c1ccc(CN2CCN3c4ccccc4CN(Cc4ccc5ccccc5n4)CC3C2)cc1` (stereo not drawn) [Example 126, 3-benzyl-6-(quinolin-2-ylmethyl)-1,2,3,4,4a,5,6,7-octahydropyrazino[1,2-a][1,4]benzodiazepine]: 1.89 µM and 150%. Consider `CCc1ccc(CN2Cc3ccccc3N3CCN(Cc4ccccc4)CC3C2)o1` (stereo not drawn) [Example 127, 3-benzyl-6-[(5-ethyl-2-furyl)methyl]-1,2,3,4,4a,5,6,7-octahydropyrazino[1,2-a][1,4]benzodiazepine], for which the activation at 3 µM under setting [2] worked out at 26%. Turning to `N#Cc1ccc(CN2Cc3ccccc3N3CCN(Cc4ccccc4)CC3C2)cc1` (stereo not drawn) [Example 128, 4-[(3-benzyl-1,2,3,4,4a,5-hexahydropyrazino[1,2-a][1,4]benzodiazepin-6(7H)-yl)methyl]benzonitrile], the concentration giving a half-maximal response (EC50) (Homo sapiens, SK-N-SH, 18 h) was determined as 4.25 µM. Besides, the Emax under setting [1] is 168%. For `CCCCN1Cc2ccccc2N2CCN(Cc3ccccc3)CC2C1` (stereo not drawn) [Example 129, 3-benzyl-6-butyl-1,2,3,4,4a,5,6,7-octahydropyrazino[1,2-a][1,4]benzodiazepine], the activation at 3 µM under setting [2] came out at 40%. For the molecule `Clc1ccc(CN2Cc3ccccc3N3CCN(Cc4ccccc4)CC3C2)cc1` (stereo not drawn) [Example 130, 3-benzyl-6-(4-chlorobenzyl)-1,2,3,4,4a,5,6,7-octahydropyrazino[1,2-a][1,4]benzodiazepine], under “Homo sapiens, SK-N-SH, 18 h”, the EC50 is 4 µM. Moreover, the Emax under setting [1] stood at 181%. Turning to `Cc1ccccc1CN1Cc2ccccc2N2CCN(Cc3ccccc3)CC2C1` (stereo not drawn) [Example 131, 3-benzyl-6-(2-methylbenzyl)-1,2,3,4,4a,5,6,7-octahydropyrazino[1,2-a][1,4]benzodiazepine], the EC50 (Homo sapiens, SK-N-SH, 18 h) is 3.22 µM. For the same molecule, the Emax under setting [1] worked out at 144%.

Regarding `Brc1ccccc1CN1Cc2ccccc2N2CCN(Cc3ccccc3)CC2C1` (stereo not drawn) [Example 132, 3-benzyl-6-(2-bromobenzyl)-1,2,3,4,4a,5,6,7-octahydropyrazino[1,2-a][1,4]benzodiazepine], the EC50 (Homo sapiens, SK-N-SH, 18 h) was 3.33 µM. Further, the Emax under setting [1] worked out at 192%. The matching figures for `COc1ccccc1CN1Cc2ccccc2N2CCN(Cc3ccccc3)CC2C1` (stereo not drawn) [Example 133, 3-benzyl-6-(2-methoxybenzyl)-1,2,3,4,4a,5,6,7-octahydropyrazino[1,2-a][1,4]benzodiazepine]: 3.64 µM and 163%.

Consider `COc1ccc(CN2Cc3ccccc3N3CCN(Cc4ccccc4)CC3C2)cc1` (stereo not drawn) [Example 134, 3-benzyl-6-(4-methoxybenzyl)-1,2,3,4,4a,5,6,7-octahydropyrazino[1,2-a][1,4]benzodiazepine], for which the EC50 (Homo sapiens, SK-N-SH, 18 h) is 3.53 µM. For the same molecule, under setting [1], the Emax amounted to 163%.

With `COc1cccc(CN2Cc3ccccc3N3CCN(Cc4ccccc4)CC3C2)c1` (stereo not drawn) [Example 135, 3-benzyl-6-(3-methoxybenzyl)-1,2,3,4,4a,5,6,7-octahydropyrazino[1,2-a][1,4]benzodiazepine], the half-maximal effective concentration (EC50) (Homo sapiens, SK-N-SH, 18 h) came out at 4.19 µM. For the same molecule, the Emax under setting [1] came out at 154%. The matching figures for `Brc1cccc(CN2Cc3ccccc3N3CCN(Cc4ccccc4)CC3C2)c1` (stereo not drawn) [Example 136, 3-benzyl-6-(3-bromobenzyl)-1,2,3,4,4a,5,6,7-octahydropyrazino[1,2-a][1,4]benzodiazepine]: 2.2 µM and 172%. `Cc1ccc(CN2Cc3ccccc3N3CCN(Cc4ccccc4)CC3C2)cc1` (stereo not drawn) [Example 137, 3-benzyl-6-(4-methylbenzyl)-1,2,3,4,4a,5,6,7-octahydropyrazino[1,2-a][1,4]benzodiazepine]: where the note is “Homo sapiens, SK-N-SH, 18 h”, the 50% effective concentration (EC50) came to 3.3 µM. The Emax under setting [1] is 143%. Consider `c1ccc(CN2CCN3c4ccccc4CN(Cc4cccc5ccccc45)CC3C2)cc1` (stereo not drawn) [Example 138, 3-benzyl-6-(1-naphthylmethyl)-1,2,3,4,4a,5,6,7-octahydropyrazino[1,2-a][1,4]benzodiazepine], for which, where the note is “Homo sapiens, SK-N-SH, 18 h”, the EC50 was 1.83 µM. The Emax under setting [1] was 203%. `Clc1ccccc1CN1Cc2ccccc2N2CCN(Cc3ccccc3)CC2C1` (stereo not drawn) [Example 139, 3-benzyl-6-(2-chlorobenzyl)-1,2,3,4,4a,5,6,7-octahydropyrazino[1,2-a][1,4]benzodiazepine]: for the setting “Homo sapiens, SK-N-SH, 18 h”, the EC50 was 3.18 µM. Further, the Emax under setting [1] came to 145%.

For the molecule `Clc1cccc(CN2Cc3ccccc3N3CCN(Cc4ccccc4)CC3C2)c1` (stereo not drawn) [Example 140, 3-benzyl-6-(3-chlorobenzyl)-1,2,3,4,4a,5,6,7-octahydropyrazino[1,2-a][1,4]benzodiazepine], the EC50 (Homo sapiens, SK-N-SH, 18 h) worked out at 3.6 µM. Also, the Emax under setting [1] is 189%.

For `CC(C)(C)CN1Cc2ccccc2N2CCN(Cc3ccccc3)CC2C1` (stereo not drawn) [Example 141, 3-benzyl-6-(2,2-dimethylpropyl)-1,2,3,4,4a,5,6,7-octahydropyrazino[1,2-a][1,4]benzodiazepine], under setting [2], the activation at 3 µM came out at 12%.

As for `Cc1ccsc1CN1Cc2ccccc2N2CCN(Cc3ccccc3)CC2C1` (stereo not drawn) [Example 142, 3-benzyl-6-[(3-methyl-2-thienyl)methyl]-1,2,3,4,4a,5,6,7-octahydropyrazino[1,2-a][1,4]benzodiazepine], the activation at 3 µM under setting [2] was found to be 13%.

As to `CC(C)CCN1Cc2ccccc2N2CCN(Cc3ccccc3)CC2C1` (stereo not drawn) [Example 143, 3-benzyl-6-(3-methylbutyl)-1,2,3,4,4a,5,6,7-octahydropyrazino[1,2-a][1,4]benzodiazepine], the activation at 3 µM under setting [2] amounted to 30%. Turning to `c1ccc(CN2CCN3c4ccccc4CN(CC4CCCCC4)CC3C2)cc1` (stereo not drawn) [Example 144, 3-benzyl-6-(cyclohexylmethyl)-1,2,3,4,4a,5,6,7-octahydropyrazino[1,2-a][1,4]benzodiazepine], under “Homo sapiens, SK-N-SH, 18 h”, the EC50 is 3.63 µM. Besides, the Emax under setting [1] is 132%.

`Cc1cccc(CN2Cc3ccccc3N3CCN(Cc4ccccc4)CC3C2)c1` (stereo not drawn) [Example 145, 3-benzyl-6-(3-methylbenzyl),-1,2,3,4,4a,5,6,7-octahydropyrazino[1,2-a][1,4]benzodiazepine]: the concentration for a half-maximal effect (EC50) (Homo sapiens, SK-N-SH, 18 h) is 3.14 µM. The Emax under setting [1] stood at 151%. The matching figures for `N#Cc1cccc(CN2Cc3ccccc3N3CCN(Cc4ccccc4)CC3C2)c1` (stereo not drawn) [Example 146, 3-[(3-benzyl-1,2,3,4,4a,5-hexahydropyrazino[1,2-a][1,4]benzodiazepin-6(7H)-yl)methyl]benzonitrile]: 2.2 µM and 182%.

Take `c1ccc(CN2CCN3c4ccccc4CN(Cc4cccs4)CC3C2)cc1` (stereo not drawn) [Example 147, 3-benzyl-6-(2-thienylmethyl)-1,2,3,4,4a,5,6,7-octahydropyrazino[1,2-a][1,4]benzodiazepine]: the activation at 3 µM under setting [2] came to 1.7%. With `CC(C)CN1Cc2ccccc2N2CCN(Cc3ccccc3)CC2C1` (stereo not drawn) [Example 148, 3-benzyl-6-isobutyl-1,2,3,4,4a,5,6,7-octahydropyrazino[1,2-a][1,4]benzodiazepine], the activation at 3 µM under setting [2] came out at 38%. On the same count and under the same terms, in the case of `COCCN(C)C(=O)N1Cc2ccccc2N2CCN(Cc3ccccc3)CC2C1` (stereo not drawn) [Example 149, 3-benzyl-N-(2-methoxyethyl)-N-methyl-1,2,3,4,4a,5-hexahydropyrazino[1,2-a][1,4]benzodiazepine-6(7H)-carboxamide] it was 218%.

For the molecule `O=C(NCCc1cccnc1)N1Cc2ccccc2N2CCN(Cc3ccccc3)CC2C1` (stereo not drawn) [Example 150, 3-benzyl-N-[2-(pyridin-3-yl)ethyl]-1,2,3,4,4a,5-hexahydropyrazino[1,2-a][1,4]benzodiazepine-6(7H)-carboxamide], under setting [2], the activation at 3 µM worked out at 212%. In the case of `O=C(NCCc1ccccn1)N1Cc2ccccc2N2CCN(Cc3ccccc3)CC2C1` (stereo not drawn) [Example 151, 3-benzyl-N-[2-(pyridin-2-yl)ethyl]-1,2,3,4,4a,5-hexahydropyrazino[1,2-a][1,4]benzodiazepine-6(7H)-carboxamide], for the setting “Homo sapiens, SK-N-SH, 18 h”, the half-maximal effective concentration (EC50) turned out to be 1.8 µM. For the same molecule, under setting [1], the Emax is 163%. With `O=C(NCCc1ccncc1)N1Cc2ccccc2N2CCN(Cc3ccccc3)CC2C1` (stereo not drawn) [Example 152, 3-benzyl-N-[2-(pyridin-4-yl)ethyl]-1,2,3,4,4a,5-hexahydropyrazino[1,2-a][1,4]benzodiazepine-6(7H)-carboxamide], the half-maximal effective concentration (EC50) (Homo sapiens, SK-N-SH, 18 h) worked out at 3.08 µM. Besides, the Emax under setting [1] stood at 239%.

Regarding `N#CCCN(C(=O)N1Cc2ccccc2N2CCN(Cc3ccccc3)CC2C1)C1CC1` (stereo not drawn) [Example 153, 3-benzyl-N-(2-cyanoethyl)-N-cyclopropyl-1,2,3,4,4a,5-hexahydropyrazino[1,2-a][1,4]benzodiazepine-6(7H)-carboxamide], the activation at 3 µM under setting [2] stood at 68%.

What is called EC50 is the midpoint of the concentration-response curve.
